# Assay results taken from EP0620225B1, “Cephalosporin derivatives” (Basilea Pharmaceutica AG, priority 1993, dated 1994).
# Read-outs that look alike come from different tables or passages of the source.
# Columns and labels:
# Acinetobacter sp.51-156 = assay: Antibacterial spectrum (MIC), agar dilution; assay type: cell-based
# Experimental: (§1) In vitro activity was determined by minimum inhibitory concentration in a microorganism spectum by the agar dilution method in Mueller Hinton agar.
# B.fragilis ATCC25285 = assay: Antibacterial spectrum (MIC), agar dilution; assay type: cell-based
# Experimental: as §1
# C.difficile ZH1 = assay: Antibacterial spectrum (MIC), agar dilution; assay type: cell-based
# Experimental: as §1
# C.freundii 43 = assay: Antibacterial spectrum (MIC), agar dilution; assay type: cell-based
# Experimental: as §1
# C.freundii 902 = assay: Antibacterial spectrum (MIC), agar dilution; assay type: cell-based
# Experimental: as §1
# E.cloacae 908R = assay: Antibacterial spectrum (MIC), agar dilution; assay type: cell-based
# Experimental: as §1
# E.cloacae 908SSi = assay: Antibacterial spectrum (MIC), agar dilution; assay type: cell-based
# Experimental: as §1
# E.coli 25922 = assay: Antibacterial spectrum (MIC), agar dilution; assay type: cell-based
# Experimental: as §1
# E.faecalis 6 = assay: Antibacterial spectrum (MIC), agar dilution; assay type: cell-based
# Experimental: as §1
# H.influenzae 1 = assay: Antibacterial spectrum (MIC), agar dilution; assay type: cell-based
# Experimental: as §1
# K.pneumoniae 418 = assay: Antibacterial spectrum (MIC), agar dilution; assay type: cell-based
# Experimental: as §1
# L.monocytogenes BK23 = assay: Antibacterial spectrum (MIC), agar dilution; assay type: cell-based
# Experimental: as §1
# M.catarrhalis RA21 = assay: Antibacterial spectrum (MIC), agar dilution; assay type: cell-based
# Experimental: as §1
# M.morganii 6H-137 = assay: Antibacterial spectrum (MIC), agar dilution; assay type: cell-based
# Experimental: as §1
# N.meningitidis 69480 = assay: Antibacterial spectrum (MIC), agar dilution; assay type: cell-based
# Experimental: as §1
# P.aeruginosa 27853 = assay: Antibacterial spectrum (MIC), agar dilution; assay type: cell-based
# Experimental: as §1
# P.asaccharolyticus 29743 = assay: Antibacterial spectrum (MIC), agar dilution; assay type: cell-based
# Experimental: as §1
# P.mirabilis 2117 = assay: Antibacterial spectrum (MIC), agar dilution; assay type: cell-based
# Experimental: as §1
# P.vulgaris 1028 = assay: Antibacterial spectrum (MIC), agar dilution; assay type: cell-based
# Experimental: as §1
# S.agalactiae QK44 = assay: Antibacterial spectrum (MIC), agar dilution; assay type: cell-based
# Experimental: as §1
# S.aureus 6538 = assay: Antibacterial spectrum (MIC), agar dilution; assay type: cell-based
# Experimental: as §1
# S.aureus 734 MRSA = assay: Antibacterial spectrum (MIC), agar dilution; assay type: cell-based
# Experimental: as §1
# S.marcescens 69438 = assay: Antibacterial spectrum (MIC), agar dilution; assay type: cell-based
# Experimental: as §1
# S.pneumoniae Q19 = assay: Antibacterial spectrum (MIC), agar dilution; assay type: cell-based
# Experimental: as §1
# S.pyogenes B15 = assay: Antibacterial spectrum (MIC), agar dilution; assay type: cell-based
# Experimental: as §1
# S.viridans group 016 = assay: Antibacterial spectrum (MIC), agar dilution; assay type: cell-based
# Experimental: as §1
# X.maltophilia 1AC739 = assay: Antibacterial spectrum (MIC), agar dilution; assay type: cell-based
# Experimental: as §1
# S.aureus MSSA = assay: In vitro activity against selected species (MIC50, MIC90, range); assay type: cell-based; settings: Staphylococcus aureus, medium MHB (Mueller Hinton Broth)
# S.pneumoniae PEN-R = assay: as above; assay type: cell-based; settings: Streptococcus pneumoniae; for MIC: MIC range
# S.viridans group = assay: as above; assay type: cell-based
# E.faecalis [1] = assay: as above; assay type: cell-based; settings: Enterococcus faecalis, medium MHA
# Experimental: as §1
# S.aureus MRSA = assay: as above; assay type: cell-based; settings: Staphylococcus aureus, medium MHA (Mueller Hinton Agar) +NaCl
# Experimental: as §1
# E.faecium = assay: In vitro activity against selected species (MIC50, range); assay type: cell-based; settings: Enterococcus faecium, medium MHA
# Experimental: as §1
# M.catarrhalis = assay: In vitro activity against selected species (MIC50, MIC90, range); assay type: cell-based; settings: Moraxella catarrhalis, medium IsoB
# Escherichia coli 25922 = assay: Efficacy against systemic infections (septicemia) in mice; assay type: in vivo; settings: 96 h, survival day 4
# How it was run: (§2)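 Swiss albino mice (16–20 g) infected i.p. with 4–10× the 48-h LD50 of each strain; compound given p.o. or s.c. at 1 and 3 h post-challenge, plus 5 h for P. aeruginosa BA. Five mice per group; ED50 (mg/kg) by probit analysis of day-4 survival.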
# S.aureus Smith = assay: as above; assay type: in vivo; settings: Staphylococcus aureus, 96 h, sc 1 and 3 h after challenge, survival day 4
# How it was run: as §2
# E.faecalis [2] = assay: In vitro activity against selected species (MIC50, MIC90, range); assay type: cell-based; settings: Enterococcus faecalis, medium IsoB
# [3] = Citrobacter freundii, read-out: MIC
# [4] = Enterobacter cloacae, read-out: MIC
# [5] = Staphylococcus aureus, read-out: MIC
# [6] = medium IsoB (Isosensitest Broth)
compound,measurement,setting,value
"Nc1nc(/C(=N/O)C(=O)N[C@@H]2C(=O)N3C(C(=O)O)=C(/C=C4\CCN(c5cccnc5)C4=O)CS[C@H]23)cs1 [K, [6R-[3(E),6α,7β(Z)]]-7-[[(2-Amino-4-thiazolyl)(hydroxyimino)acetyl]-amino]-8-oxo-3-[[2-oxo-1-(3-pyridinyl)-3-pyrrolidinylidene]methyl]-5-thia-1-azabicyclo[4.2.0]oct-2-ene-2-carboxylic acid]",MIC,Acinetobacter sp.51-156,32 µg/mL
same,MIC,B.fragilis ATCC25285,4 µg/mL
same,MIC,C.difficile ZH1,16 µg/mL
same,MIC,C.freundii 43,2 µg/mL
same,MIC,C.freundii 902,≤0.12 µg/mL
same,MIC,E.cloacae 908R,4 µg/mL
same,MIC,E.cloacae 908SSi,≤0.12 µg/mL
same,MIC,E.coli 25922,≤0.12 µg/mL
same,MIC,E.faecalis 6,1 µg/mL
same,MIC,H.influenzae 1,0.25 µg/mL
same,MIC,K.pneumoniae 418,≤0.12 µg/mL
same,MIC,L.monocytogenes BK23,8 µg/mL
same,MIC,M.catarrhalis RA21,>16 µg/mL
same,MIC,M.morganii 6H-137,≤0.12 µg/mL
same,MIC,N.meningitidis 69480,≤0.06 µg/mL
same,MIC,P.aeruginosa 27853,16 µg/mL
same,MIC,P.asaccharolyticus 29743,≤0.25 µg/mL
same,MIC,P.mirabilis 2117,≤0.12 µg/mL
same,MIC,P.vulgaris 1028,4 µg/mL
same,MIC,S.agalactiae QK44,0.5 µg/mL
same,MIC,S.aureus 6538,1 µg/mL
same,MIC,S.aureus 734 MRSA,8 µg/mL
same,MIC,S.marcescens 69438,0.5 µg/mL
same,MIC,S.pneumoniae Q19,0.12 µg/mL
same,MIC,S.pyogenes B15,≤0.06 µg/mL
same,MIC,S.viridans group 016,1 µg/mL
same,MIC,X.maltophilia 1AC739,>32 µg/mL
"C=CC1=C(C(=O)O)N2C(=O)[C@@H](NC(=O)/C(=N\O)c3csc(N)n3)[C@H]2SC1 [Cefdinir, reference compound]",MIC,"Acinetobacter sp.51-156; SP.51156, read-out: MIC",> 32 µg/mL
same,MIC,"B.fragilis ATCC25285; Bacteroides fragilis, read-out: MIC",32 µg/mL
same,MIC,"C.difficile ZH1; Clostridioides difficile, read-out: MIC",32 µg/mL
same,MIC,C.freundii 43; [3],> 32 µg/mL
same,MIC,C.freundii 902; [3],16 µg/mL
same,MIC,E.cloacae 908R; [4],> 32 µg/mL
same,MIC,E.cloacae 908SSi; [4],32 µg/mL
same,MIC,"E.coli 25922; Escherichia coli, read-out: MIC",0.25 µg/mL
same,MIC,"E.faecalis 6; Enterococcus faecalis, read-out: MIC",8 µg/mL
same,MIC,"H.influenzae 1; Haemophilus influenzae, read-out: MIC",0.5 µg/mL
same,MIC,"K.pneumoniae 418; Klebsiella pneumoniae, read-out: MIC",0.12 µg/mL
same,MIC,"L.monocytogenes BK23; Listeria monocytogenes, read-out: MIC",16 µg/mL
same,MIC,"M.catarrhalis RA21; Moraxella catarrhalis, read-out: MIC",1 µg/mL
same,MIC,"M.morganii 6H-137; Morganella morganii, 6H137, read-out: MIC",8 µg/mL
same,MIC,"N.meningitidis 69480; Neisseria meningitidis, read-out: MIC",≤ 0.06 µg/mL
same,MIC,"P.aeruginosa 27853; Pseudomonas aeruginosa, read-out: MIC",> 32 µg/mL
same,MIC,"P.asaccharolyticus 29743; Peptoniphilus asaccharolyticus, read-out: MIC",≤ 0.12 µg/mL
same,MIC,"P.mirabilis 2117; Proteus mirabilis, read-out: MIC",0.12 µg/mL
same,MIC,"P.vulgaris 1028; Proteus vulgaris, read-out: MIC",1 µg/mL
same,MIC,"S.agalactiae QK44; Streptococcus agalactiae, read-out: MIC",0.25 µg/mL
same,MIC,S.aureus 6538; [5],0.5 µg/mL
same,MIC,S.aureus 734 MRSA; [5],> 32 µg/mL
same,MIC,"S.marcescens 69438; Serratia marcescens, read-out: MIC",16 µg/mL
same,MIC,"S.pneumoniae Q19; Streptococcus pneumoniae, read-out: MIC",0.25 µg/mL
same,MIC,"S.pyogenes B15; Streptococcus pyogenes, read-out: MIC",≤ 0.06 µg/mL
same,MIC,"S.viridans group 016; Streptococcus viridans, read-out: MIC",2 µg/mL
same,MIC,"X.maltophilia 1AC739; Stenotrophomonas maltophilia, read-out: MIC",> 32 µg/mL
same,MIC,S.aureus MSSA; MIC range,0.5 to 4 µg/mL
same,MIC50,S.aureus MSSA,1 µg/mL
same,MIC90,S.aureus MSSA,2 µg/mL
same,MIC,S.pneumoniae PEN-R; [6],0.1 to 8 µg/mL
same,MIC,S.pneumoniae PEN-R; medium IsoB + 20% serum,0.1 to 8 µg/mL
same,MIC50,S.pneumoniae PEN-R; [6],2 µg/mL
same,MIC90,S.pneumoniae PEN-R; [6],4 µg/mL
same,MIC50,S.pneumoniae PEN-R; medium IsoB + 20% serum,4 µg/mL
same,Range,"S.viridans group; MIC range, medium IsoB",<0.12 to 128 µg/mL
same,MIC50,S.viridans group; Streptococcus viridans,8 µg/mL
same,MIC90,S.viridans group; Streptococcus viridans,16 µg/mL
same,MIC,E.faecalis [1]; MIC range,4 to 32 µg/mL
same,MIC50,E.faecalis [1],8 µg/mL
same,MIC90,E.faecalis [1],16 µg/mL
same,MIC50,S.aureus MRSA,> 32 µg/mL
same,MIC90,S.aureus MRSA,> 32 µg/mL
same,MIC50,E.faecium,16 µg/mL
same,MIC,M.catarrhalis; MIC range,0.25 to 0.5 µg/mL
same,MIC50,M.catarrhalis,0.25 µg/mL
same,MIC90,M.catarrhalis,0.5 µg/mL
same,ED50,"Escherichia coli 25922; Escherichia coli 25922, po (orally) 1 and 3 h after challenge",1.8 mg/kg
same,ED50,"Escherichia coli 25922; Escherichia coli, E.coli 25922, sc 1 and 3 h after challenge",< 1 mg/kg
same,ED50,S.aureus Smith,< 1 mg/kg
same,MIC,E.faecalis [2]; MIC range,1 to 64 µg/mL
same,MIC50,E.faecalis [2],8 µg/mL
same,MIC90,E.faecalis [2],32 µg/mL
